Structures can show the parent of a compound that is named as a salt.
System: rabbits with normal intraocular pressure
Experiment: Experiment 1: ocular hypotensive effect of eye drops (applanation pneumatonograph)
Type: in vivo, Male Dutch species coloured rabbits
Details: for Difference in IOP between the control and test eyes: 50 µl instilled
Protocol: The ocular hypotensive effect of the eye drops of this invention was investigated in rabbits. The same experiment was also conducted using a representative β-adrenergic blocking agent, and its ocular hypotensive effect was compared with that of eye drops of this invention. Methods: According to the formulations described in Examples 1, 2 and 3, three kinds of eye drops respectively containing 0.5, 0.05 and 0.005% of the compound (1) were prepared. As a negative control, eye drops not containing compound (1), which is eye drops described in Reference Example below, were used. The positive control was commercially available eye drops containing timolol maleate (0.5% equivalent of free base) as an active ingredient. Male Dutch species coloured rabbits (body weight: ca. 2 kg) with normal intraocular pressure were used in the experiment. Each of the test solutions (three kinds of eye drops containing 0.5, 0.05 or 0.005% of ifenprodil) (50 µl) was instilled into one eye of each rabbit, and the control solution free of ifenprodil (50 µl), the eye drops described in Reference Example, into the fellow eye which served as a control. For each solution, six rabbits were used. After anesthesia of the corneal surface by instillating 5 µl of 0.4% oxybuprocaine hydrochloride, the intraocular pressure was measured using an applanation pneumatonograph (Alcon) before and after the instillation of the test solution and control solution. Measurement of intraocular pressure after the instillation was conducted with one-hour intervals until six hours - nine hours post-instillation.

[1] = eye drops 0.5%, one hour after instillation, difference from control eye

CC(C(O)c1ccc(O)cc1)N1CCC(Cc2ccccc2)CC1 (centres unmarked) [Compound (1), 2-(4-benzylpiperidino)-1-(4-hydroxyphenyl)-1-propanol]
IOP reduction (eye drops 0.005%): produced IOP reduction which varies depending on concentration of compound (1)
Difference in IOP between the control and test eyes (eye drops 0.005% free base, 1 hr): -0.79 mmHg
Difference in IOP between the control and test eyes (eye drops 0.005% free base, 2 hr): -0.75 mmHg
Difference in IOP between the control and test eyes (eye drops 0.005% free base, 4 hr): -0.79 mmHg
Difference in IOP between the control and test eyes (eye drops 0.005% free base, 6 hr): -0.17 mmHg
Difference in IOP between the control and test eyes (eye drops 0.05% free base, 1 hr): -1.79 mmHg
Difference in IOP between the control and test eyes (eye drops 0.05% free base, 2 hr): -0.96 mmHg
Difference in IOP between the control and test eyes (eye drops 0.05% free base, 4 hr): -0.67 mmHg
Difference in IOP between the control and test eyes (eye drops 0.05% free base, 6 hr): -0.38 mmHg
average IOP reduction (eye drops 0.05%, one hour after administration): 1.8 mmHg
duration of ocular hypotensive effect (eye drops 0.5%): retained for nine hours after instillation
time of maximal IOP reduction (eye drops 0.5%): one hour after instillation
Difference in IOP between the control and test eyes (eye drops 0.5% free base, 1 hr): -2.67 mmHg
Difference in IOP between the control and test eyes (eye drops 0.5% free base, 2 hr): -2.17 mmHg
Difference in IOP between the control and test eyes (eye drops 0.5% free base, 4 hr): -1.17 mmHg
Difference in IOP between the control and test eyes (eye drops 0.5% free base, 6 hr): -1.13 mmHg
average IOP reduction [1]: 2.7 mmHg

CC(C)(C)NC[C@H](O)COc1nsnc1N1CCOCC1 [Timolol maleate, timolol maleate, reference compound]
Difference in IOP between the control and test eyes (eye drops 0.5% free base, 1 hr): -0.88 mmHg
Difference in IOP between the control and test eyes (eye drops 0.5% free base, 2 hr): -0.58 mmHg
Difference in IOP between the control and test eyes (eye drops 0.5% free base, 4 hr): -0.25 mmHg
Difference in IOP between the control and test eyes (eye drops 0.5% free base, 6 hr): -0.13 mmHg
average IOP reduction [1]: 0.9 mmHg
average IOP reduction (eye drops 0.5%, two hours after administration): 0.6 mmHg
